Measured values as given in patent EP0302626A2, “Insecticidal compounds” (IMPERIAL CHEMICAL INDUSTRIES PLC, priority 1987, dated 1989).
Where “and” joins values, the source holds several entries; their conditions need not be identical. Equal entries are not always repeated. Where two headings read alike, the source gives them in different places.

Key:
Format in all cases: in vivo
[1] = tested on: Tetranychus urticae (spider mites - adult); assay: insecticidal mortality test, contact, French bean leaf; conditions: Tetranychus urticae, 72 h; for mortality at 100 ppm: read-out: grading of mortality, Tua, 100 ppm, 3 days
Procedure: (§1) The activity of the Product was determined using a variety of insect pests. The Product was used in the form of liquid preparations containing 500, 250 or 100 parts per million (ppm) by weight of the Product. The preparations were made by dissolving the Product in acetone and diluting the solutions with water containing 0.01% by weight of a wetting agent sold under the trade name "LlSSAPOL" NX until the liquid preparations contained the required concentration of the Product. "Lissapol" is a Registered Trade Mark.
(§2) The test procedure adopted with regard to each pest was basically the same and comprised supporting a number of the pests on a medium which was usually a host plant or a foodstuff on which the pests feed, and treating either or both the pests and the medium with the preparations. The mortality of the pests was then assessed at periods usually varying from one to three days after the treatment.
(§3) The results of the tests are given in Table III for each of the Products, at the rate in parts per million given in the second column as a grading of mortality designated as A, B or C wherein A indicates 80-100% mortality, B indicates 50-79% mortality and C indicates less than 50% mortality.
(§4) In Table 111 the pest organism used is designated by a letter code and the pests species, the support medium or food, and the type and duration of test is given in Table II.

[2] = tested on: Musca domestica (houseflies - adults); assay: insecticidal mortality test, contact, cotton wool/sugar; conditions: read-out: grading of mortality, MD
Procedure: as §1, §2, §3, §4

[3] = tested on: Blattella germanica (adult males); assay: Blattella germanica knockdown test; conditions: for mortality at 250 ppm / pest or weed control at 250 ppm: Blattella germanica; for mortality at 250 ppm: 48 h, read-out: % MORTALITY 48 hrs; for mortality at 250 ppm / % MORTALITY 48 hrs: insects held at 25°C and 65% relative humidity for 48 hours; for pest or weed control at 250 ppm: topical, Tetramethrin: mean of 27 observations; for % MORTALITY 48 hrs: 2880 min
Procedure: The test compound was dissolved in acetone (2 cm³) and the solution diluted to a concentration of 250 ppm with kerosene. 1 cm³ Of this preparation was sprayed onto 10 Blattella germanica (adult males) held in a netted plastic pot in a Burkhard potter Tower. Assessment of knockdown was performed at intervals of 5 minutes up to a total of 20 minutes. On removal from the Burkhard Potter Tower, the insects were held at 25°C and 65% relative humidity for 48 hours, and an assessment of mortality performed. Each test was repeated.
In some tests, additional knockdown assessment was performed at intervals of 1, 2, 3 and 4 minutes, and KT₅₀ and KT₉₀ values determined (the time taken, in minutes, to knockdown 50% and 90% respectively of test insects).

Myzus persicae (aphids) = assay: insecticidal mortality test, contact, Chinese Cabbage leaf; conditions: 72 h, read-out: grading of mortality, MP
Procedure: as §1, §2, §3, §4

[4] = tested on: Musca domestica (adult females); assay: Musca domestica knockdown test; conditions: 1 cm3 of 30 ppm solution in acetone, Kearns and March chamber, 20 adult females, observed over 10 minutes; average of 2 replicates (* single replicate, ** average of 7 tests)
Procedure: 1 cm³ Of a 30 ppm solution of the test chemical in acetone was sprayed into a Kearns and March chamber containing 20 Musca domestica (adult females). Knockdown was observed over a period of 10 minutes and KT₅₀ and KT₉₀ values (the time taken for 50% and 90% of the insects to be knocked down) were calculated from the observations. The results given in Table V represent average KT values of 2 replicates except where otherwise stated.

[5] = tested on: Nephotettix cincticeps (green leaf hopper - nymphs); assay: insecticidal mortality test, contact, rice plant; conditions: 100 ppm, contact, rice plant, read-out: grading of mortality, NC
Procedure: as §1, §2, §3, §4

[6] = tested on: Diabrotica balteata (rootworm larvae); assay: insecticidal mortality test, residual, filter paper/maize seed; conditions: read-out: grading of mortality, DB
Procedure: as §1, §2, §3, §4

[7] = tested on: Spodoptera exigua (lesser army worm - larvae); assay: insecticidal mortality test, residual, cotton leaf; conditions: read-out: grading of mortality, SP
Procedure: as §1, §2, §3, §4

[8] = tested on: Heliothis virescens (tobacco budworm - larvae); assay: insecticidal mortality test, residual, cotton leaf; conditions: residual, cotton leaf, read-out: grading of mortality, HV
Procedure: as §1, §2, §3, §4

[9] = tested on: Blattella germanica (cockroach nymphs); assay: insecticidal mortality test, residual, plastic pot; conditions: 72 h, read-out: grading of mortality, BG
Procedure: as §1, §2, §3, §4

[10] = 250 ppm spray, tests 1 and 2 are repeats
[11] = 10 min, 250 ppm in kerosene, 1 cm3 sprayed onto 10 adult males, 10 min, tests 1 and 2 are repeats, read-out: % KNOCKDOWN OBSERVED 10 min
[12] = 250 ppm in kerosene, 1 cm3 sprayed onto 10 adult males, tests 1 and 2 are repeats
[13] = 48 h, test duration of 2 days (footnote +)

## CC1(C)C(C=C(Cl)C(F)(F)F)C1C(=O)OCc1c(F)c(F)c(CC#N)c(F)c1F (racemic) [Product XII, 4-(Cyanomethyl)-2,3,5,6-tetrafluorobenzyl (1RS, cis)-3-(Z-2-chloro-3,3,3-trifluoroprop-1-en-1-yl)-2,2-dimethylcyclopropanecarboxylate]
[1]
  mortality at 100 ppm: 80 to 100%
[2]; 24 h
  mortality at 100 ppm: 80 to 100%
[3]; [10]
  mortality at 250 ppm: 100%
[3]; [11]
  pest or weed control at 250 ppm: 100%
Myzus persicae (aphids)
  mortality at 100 ppm: < 50%
[4]
  KT₅₀: 6.8 min
  KT₉₀: 9.8 min
[5]; 72 h, 3 days
  mortality at 100 ppm: 80 to 100%
[6]; 72 h
  mortality at 100 ppm: 80 to 100%
[7]; 72 h
  mortality at 100 ppm: 80 to 100%
[8]; 72 h, 3 days
  mortality at 100 ppm: 80 to 100%
[9]
  mortality at 100 ppm: 80 to 100%

## CC(=O)OCc1c(F)c(F)c(COC(=O)C2C(C=C(Cl)C(F)(F)F)C2(C)C)c(F)c1F (racemic) [Product VI, 4-(Acetoxymethyl)-2,3,5,6-tetrafluorobenzyl (1RS,cis)-3-(Z-2-chloro-3,3,3-trifluoroprop-1-en-1-yl)-2,2-dimethylcyclopropanecarboxylate]
[1]
  mortality at 100 ppm: 50 to 79%
[2]; 24 h
  mortality at 100 ppm: 80 to 100%
[3]; [12]
  % KNOCKDOWN OBSERVED 15 min: 70%
[3]; 250 ppm in kerosene, 1 cm3 sprayed onto 10 adult males, 20 min, tests 1 and 2 are repeats
  % KNOCKDOWN OBSERVED 20 min: 100%
[3]; [10]
  mortality at 250 ppm: 100%
[3]; [11]
  pest or weed control at 250 ppm: 30%
Myzus persicae (aphids)
  mortality at 100 ppm: 80 to 100%
[4]
  KT₅₀: 7.0 min
  KT₉₀: 7.7* mins
[5]; 72 h, 3 days
  mortality at 100 ppm: 80 to 100%
[6]; 72 h
  mortality at 100 ppm: 80 to 100%
[7]; 72 h
  mortality at 100 ppm: 80 to 100%
[8]; 72 h, 3 days
  mortality at 100 ppm: 80 to 100%
[9]
  mortality at 100 ppm: 80 to 100%

## CC=NNc1c(F)c(F)c(COC(=O)C2C(C=C(Cl)C(F)(F)F)C2(C)C)c(F)c1F (stereo not drawn) [Product XIV, E/Z-4-(ethylidenehydrazino)-2,3,5,6-tetrafluorobenzyl (1RS, cis)-3-(Z-2-chloro-3,3,3-trifluoroprop-1-en-1-yl)-2,2-dimethylcyclopropanecarboxylate]
[1]; read-out: grading of mortality, Tua, 500 ppm, 3 days
  mortality at 500 ppm: < 50%
[2]; 24 h
  mortality at 500 ppm: 80 to 100%
[3]; [12]
  % KNOCKDOWN OBSERVED 15 min: 100%
[3]; [10]
  % MORTALITY 48 hrs: 50% and 90%
Myzus persicae (aphids)
  mortality at 500 ppm: 80 to 100%
[4]
  KT₅₀: 6.6 min
  KT₉₀: 9.4 min
[6]; 72 h
  mortality at 500 ppm: 80 to 100%
[8]; 72 h, 500 ppm, 3 days
  mortality at 500 ppm: 80 to 100%
[9]
  mortality at 500 ppm: 80 to 100%

## C#CCN(C)Cc1c(F)c(F)c(COC(=O)[C@@H]2[C@H](/C=C(\Cl)C(F)(F)F)C2(C)C)c(F)c1F (racemic) [Product XXIV, 4-[(N-(prop-2-yn-1-yl)-N-methyl)aminomethyl]-2,3,5-6-tetrafluorobenzyl (1RS, cis)-3-(Z-2-chloro-3,3,3-trifluoroprop-1-en-1-yl)-2,2-dimethylcyclopropanecarboxylate]
[1]
  mortality at 100 ppm: 50 to 79%
[2]; 72 h
  mortality at 100 ppm: 80 to 100%
[3]; [10]
  % MORTALITY 48 hrs: 100% and 70%
[3]; 250 ppm spray, time taken to knockdown 50% of test insects, Tetramethrin: mean of 3 assessments
  KT₅₀: 4.2 min and 5.0 min
[3]; 250 ppm spray, time taken to knockdown 90% of test insects, Tetramethrin: mean of 3 assessments
  KT₉₀: 8.8 min and 9.0 min
[3]; 5 min, 250 ppm in kerosene, 1 cm3 sprayed onto 10 adult males, 5 min, tests 1 and 2 are repeats, read-out: % KNOCKDOWN OBSERVED 5 min
  pest or weed control at 250 ppm: 60%
[3]; [11]
  pest or weed control at 250 ppm: 100%
Myzus persicae (aphids)
  mortality at 100 ppm: 80 to 100%
[5]; [13]
  mortality at 100 ppm: 80 to 100%
[6]; 48 h
  mortality at 100 ppm: 80 to 100%
[7]; 48 h
  mortality at 100 ppm: 80 to 100%
[8]; [13]
  mortality at 100 ppm: 80 to 100%
[9]
  mortality at 100 ppm: 50 to 79%
